The test system of data set [1] is PLL-coated chips. Briefly: Binding of Jurkat cells to PLL-coated chips after blocking (z-Movi avidity, no target cells). Type of data set: cell-based. The method, then: (§1) z-Movi® chips (obtained and as available from LUMICKS (<https://lumicks.com/products/z-movi-cell-interaction-studies/>) were coated with Poly-L-Lysine (#P4707-50ML, Sigma) diluted 1:5 in PBS for 10 minutes at room temperature, or with human Fibronectin (#F0895, Sigma) at 0.1 mg/mL overnight at room temperature. The following day the target cells were seeded in serum free RPMI medium, incubated 1 h, and subsequently the medium replaced with complete RPMI medium. The chips were incubated for an additional hour before the blocking reaction. The effector cells were stained with CellTrace™ Far Red dye (Thermo Fisher Scientific) at 1 μM for 15 minutes in PBS at 37° C., then resuspended at 10 million/mL in complete medium and used for the avidity experiments. The stained effector cells (i.e. cells of interest) were introduced in the target cell-seeded flow cell, incubated for 5 minutes, and then a 1 to 1000 pN force ramp was applied throughout 2.5 minutes using z-Movi® operated with the Oceon V1.2 software. At the end of the avidity measurements, the monolayer was stained with a Trypan Blue solution to qualitatively assess the target cell viability. The avidity experiment analysis was performed using Oceon V1.2. […]

Data set [2] relates to Raji cells. Description: Monolayer integrity/viability (Trypan Blue) of Raji seeded PLL-coated chips after blocking. Type of data set: cell-based. The settings on record: Raji on PLL, vs DMSO vehicle. As to the method: as §1
Data set [3] concerns Raji cells. Description: Avidity of UNT or FMC63-CAR primary T cells to Raji seeded PLL-coated chips after blocking. It counts as cell-based. As to the method: Untransduced or FMC63-transduced primary CAR T cells were obtained from ProMab Biotechnologies Inc. (Anti-CD19-TF-CD28-CD3z (PMC-152)) propagated with CD3/CD28 dynabeads (Thermo Fisher Scientific) and 90 IU/mL of IL-2 (Miltenyi Biotec), or Untransduced or FMC63 CAR transduced Jurkat were used (Creative Biolabs).
(§2) z-Movi® chips (obtained and as available from LUMICKS (<https://lumicks.com/products/z-movi-cell-interaction-studies/>) were coated with Poly-L-Lysine (#P4707-50ML, Sigma) diluted 1:5 in PBS for 10 minutes at room temperature, or with human Fibronectin (#F0895, Sigma) at 0.1 mg/mL overnight at room temperature. The following day the target cells were seeded in serum free RPMI medium, incubated 1 h, and subsequently the medium replaced with complete RPMI medium. The chips were incubated for an additional hour before the blocking reaction. The effector cells were stained with CellTrace™ Far Red dye (Thermo Fisher Scientific) at 1 μM for 15 minutes in PBS at 37° C., then resuspended at 10 million/mL in complete medium and used for the avidity experiments. The stained effector cells (i.e. cells of interest) were introduced in the target cell-seeded flow cell, incubated for 5 minutes, and then a 1 to 1000 pN force ramp was applied throughout 2.5 minutes using z-Movi® operated with the Oceon V1.2 software. At the end of the avidity measurements, the monolayer was stained with a Trypan Blue solution to qualitatively assess the target cell viability. The avidity experiment analysis was performed using Oceon V1.2.
(§3) The MS(PEG)4 or BS(PEG)5 (Thermo Fisher Scientific) (see FIG. 2) were dissolved in anhydrous DMSO (Merck) then diluted in PBS to obtain a final concentration of 5 mM or as otherwise indicated. The target cell-seeded chips (or coated only with PLL or fibronectin) were rinsed with PBS before introducing the blocking solution (or a PBS solution with DMSO as control sample). The chips were incubated for 15 minutes at room temperature and the reaction was stopped with TBS (50 mM Tris pH7.4, 150 mM NaCl). The chips were subsequently equilibrated with complete medium and used for avidity measurements. Furthermore, blocking was also tested with incubations of 1 hour with serum free RPMI medium, 20% fetal bovine serum (FBS), 50% FBS, 50% human serum (HS), 10% bovine serum albumin (BSA), NALM6 condition medium.
We then performed the experiments with the blocking agents with primary T cells expressing a FMC63 CAR (or not) layered on Raji cells. We observed that the observations made with Jurkat cells were recapitulated showing a considerable improvement of the negative/positive window on the chips subjected to the blocking reaction (FIG. 7).

In data set [4] the test system is Raji cells. Briefly: Avidity of UNT or FMC63-CAR Jurkat cells to Raji seeded PLL-coated chips after blocking. Type of data set: cell-based. The conditions noted are these: for percentage of effector cells bound to the target cells at the end of the force ramp (1000 pN) / difference in the positive/negative window: PLL; for percentage of effector cells bound to the target cells at the end of the force ramp (1000 pN): mean n=2; for difference in the positive/negative window: CAR minus UNT bound at 1000 pN, Raji; for binding of the CAR sample (cells bound) after blocking: FMC63 CAR Jurkat, from about 80% without blocking; for binding of the CAR sample (cells bound) after blocking / background binding of the UNT sample (cells bound) after blocking: Raji-seeded PLL chips; for background binding of the UNT sample (cells bound) after blocking: UNT Jurkat, from about 50% without blocking. As to the method: as §2, §3
We next validated the use of NHS-based blockers to reduce background binding of the effector cells in the presence of the monolayer. We used as cells of interest a Jurkat cell line transduced to express the FMC63 Chimeric Antigen Receptor (CAR) or untransduced (UNT) as control cells. As target cells we used the Raji cell line, endogenously expressing the CD19 antigen, seeded on PLL coated chips.

In data set [5] the test system is CD69 activation marker. Description: CD69 activation assay, Jurkat co-incubated with blocked Raji cells. It counts as cell-based. The settings on record: 1:1, 4 h. As to the method:
Target cells were treated with DMSO or blocking agent using the protocol above, resuspended at 1 million/mL in RPMI complete medium and mixed at 1:1 ratio with the indicated effector cells. For the IFNγ release assay the samples were incubated for 7 h in the incubator before spinning down and use of the supernatant to perform the ELISA (Biolegend, ELISA MAX™ Deluxe Set Human IFNγ). […]

In data set [6] the test system is human fibronectin-coated chips. Briefly: Binding of Jurkat cells to human fibronectin-coated chips after blocking (z-Movi avidity, no target cells). Type of data set: cell-based. As to the method: as §1
The test system of data set [7] is IFNγ. Description: IFNγ release assay (ELISA), primary T cells co-incubated with blocked Raji cells. It counts as cell-based, human. The conditions noted are these: 1:1, 7 h. The method, then:
Target cells were treated with DMSO or blocking agent using the protocol above, resuspended at 1 million/mL in RPMI complete medium and mixed at 1:1 ratio with the indicated effector cells. For the IFNγ release assay the samples were incubated for 7 h in the incubator before spinning down and use of the supernatant to perform the ELISA (Biolegend, ELISA MAX™ Deluxe Set Human IFNγ). For the CD69 assay, the target and effector cells prepared as described above were co-incubated for 5 h in the incubator before being stained using anti-CD3 and anti-CD69 antibodies (clone SK7 and FN50, Biolegend).
(In general: An ELISA detects its analyte on a solid surface through an enzyme-linked reagent.)

For data set [8], the system named is Raji cells. Description: Avidity of UNT or FMC63-CAR primary T cells to Raji covalent monolayer on PLL-coated chips. It counts as cell-based. The conditions noted are these: 10 mM crosslinker, mean n=2. The method, then:
Untransduced or FMC63-transduced primary CAR T cells were obtained from ProMab Biotechnologies Inc. (Anti-CD19-TF-CD28-CD3z (PMC-152)) propagated with […] CD3/CD28 dynabeads (Thermo Fisher Scientific) and 90 IU/mL of IL-2 (Miltenyi Biotec). Raji cells were used as target cells. Primary CAR-T cells were cultured in RPMI+Glutamax supplemented with 50 μM β-Mercaptoethanol, 5% heat inactivated human serum, and Penicillin-Streptomycin.
z-Movi® chips (obtained and as available from LUMICKS) were coated with Poly-L-Lysine (#P4707-50ML, Sigma) diluted 1:5 in PBS for 10 minutes at room temperature. The following day the target cells were seeded in PBS, incubated 0.75 h, and subsequently the monolayers were left untreated or reacted with BS(PEG)9. For negative control the PLL coated chips were reacted with 5 mM MS(PEG)4 before seeding the Raji cells. The effector cells were stained with CellTrace™ Far Red dye (Thermo Fisher […] Scientific) at 1 μM for 15 minutes in PBS at 37° C., then resuspended at 10 million/mL in complete medium and used for the avidity experiments. The stained effector cells (i.e. cells of interest) were introduced in the target cell-seeded flow cell, incubated for 5 minutes, and then a 1 to 1000 pN force ramp was applied throughout 2.5 minutes using z-Movi® operated with the Oceon® V1.2 software. […]

Data set [9] deals with Hela-CD19 cells. Description: Avidity of UNT or FMC63-CAR Jurkat to Hela-CD19 seeded fibronectin-coated chips after blocking. Type of data set: cell-based. The settings on record: Hela-CD19 on human fibronectin, blocker 5 mM; for percentage of effector cells bound to the target cells at the end of the force ramp (1000 pN): mean n=2. As to the method: as §2
as §3, with “medium. […]” for “medium.”

The test system of data set [10] is Hela-CD19 cells. Briefly: Avidity of UNT or FMC63-CAR Jurkat to Hela-CD19 seeded PLL-coated chips after blocking. Type of data set: cell-based. The settings on record: Hela-CD19 on PLL, blocker 5 mM; for percentage of effector cells bound to the target cells at the end of the force ramp (1000 pN): mean n=2. As to the method: as §2
as §3, with “medium. […]” for “medium.”

Setting [11] is: CAR Jurkat + Raji treated with 5 mM blocker 15 minutes.
Setting [12] is: UNT Jurkat + Raji treated with 5 mM blocker 15 minutes.

Molecules are shown by their SMILES.

Turning to `O=C(CCOCCOCCOCCOCCOCCC(=O)ON1C(=O)CCC1=O)ON1C(=O)CCC1=O` [BS(PEG)5], the “percentage of Jurkat cells bound at the end (1000 pN) of the avidity measurement” value in data set [1] (blocking agent 1 mM) is on record as 92.9%; in data set [1] (blocking agent 5 mM), 1.2%. Besides, the “monolayer integrity (confluency, cell morphology, staining)” value in data set [2] (blocker 4.5 mM) is listed as “No differences in target cell monolayer confluency, cell morphology or staining could be detected”. Also, the “percentage of effector cells bound to the target cells at the end of the force ramp (1000 pN)” value (“percentage of effector cells bound” below) in data set [3] (CAR primary T cells + Raji, blocker 4.5 mM, mean n=2 (FIG. 7A)) was 66.3%; in [3] (UNT primary T cells + Raji, blocker 4.5 mM, mean n=2 (FIG. 7A)), 39.9%; in data set [4] (CAR (FMC63-transduced) effector cells + Raji, blocker 4.5 mM) it was 78.3%; in [4] (UNT (untransduced) effector cells + Raji, blocker 4.5 mM) it was 15.6%. Also, in [4] (blocker 4.5 mM), the “difference in the positive/negative window” value was found to be 62.7%. Also, in data set [4], the “binding of the CAR sample (cells bound) after blocking” value was “about 70%”. Further, the “background binding of the UNT sample (cells bound) after blocking” value in [4] was “about 20%”. Also, the “percentage of CD69 positive cells” value in data set [5] (setting [11]) stood at 30%; in data set [5] (setting [12]), 0.6%. Moreover, the “percentage of bound Jurkat cells at the end of the force ramp (1000 pN)” value worked out at 52.8% in data set [6] (blocking agent 1 mM) and 43.2% in data set [6] (blocking agent 5 mM). Besides, the “amount of IFNγ in co-culture supernatants” value in data set [7] (CAR primary T cells + Raji treated with 4.5 mM blocker 15 minutes) stood at 1633 pg/mL; in data set [7] (UNT primary T cells + Raji treated with 4.5 mM blocker 15 minutes) it was 11 pg/mL.
On to `O=C(CCOCCOCCOCCOCCOCCOCCOCCOCCOCCC(=O)ON1C(=O)CCC1=O)ON1C(=O)CCC1=O` [BS(PEG)9], for which the figures for the “percentage of effector cells bound” value in data set [8] (CAR primary T cells + Raji) and in data set [8] (UNT primary T cells + Raji) were 61.4% and 10.3%, respectively.
For the compound `COCCOCCOCCOCCC(=O)ON1C(=O)CCC1=O` [MS(PEG)4], the “monolayer integrity (confluency, cell morphology, staining)” value in [2] (blocker 5 mM) is listed as “No differences in target cell monolayer confluency, cell morphology or staining could be detected”. For the same compound, the “percentage of effector cells bound” value in data set [3] (CAR primary T cells + Raji, mean n=3 (FIG. 7B)) is listed as 67.8%; in data set [3] (UNT primary T cells + Raji, mean n=3 (FIG. 7B)) it was 42.6%; in data set [9] (CAR Jurkat), 70.1%; in [9] (UNT Jurkat), 16.8%; in data set [4] (CAR (FMC63-transduced) effector cells + Raji, blocker 5 mM), 84.7%; in data set [4] (UNT (untransduced) effector cells + Raji, blocker 5 mM) it was 32.8%. Also, the results for the “percentage of effector cells bound” value in data set [10] (CAR Jurkat) and in data set [10] (UNT Jurkat) were 68% and 5%, respectively. In addition, the figures for the “pos/neg window after the blocking reaction” value in data set [9] (control window 33.3%) and in data set [10] (control window 49.4%) were 53.3% and 63%, respectively. Moreover, the “difference in the positive/negative window” value in data set [4] (blocker 5 mM) was found to be 51.9%. Further, the “binding of the CAR sample (cells bound) after blocking” value in data set [4] is “about 70%”. Besides, in data set [4], the “background binding of the UNT sample (cells bound) after blocking” value is listed as “about 20%”. The results for the “percentage of CD69 positive cells” value in data set [5] (setting [11]) and in [5] (setting [12]) were 27% and 0.8%, respectively.
